Assay in all cases: in vitro antibacterial activity, agar plate dilution method
Holding throughout (assay type): cell-based

For assay [1], the system named is S. marcescens No. 16-2*. As to conditions: Serratia marcescens. In a few lines:
(§1)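 Agar dilution on Mueller Hinton agar with various compound concentrations; overnight broth inoculum, 37° C., 16 h; MIC in μg/ml.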

Assay [2] relates to E. coli GN5482*. Conditions: Escherichia coli, GN5482, 16 h. In a few lines: as §1
Assay [3] deals with K. pneumoniae PC1-602. As to conditions: Klebsiella pneumoniae. The gist of the method: as §1
For assay [4], the system named is Ps. aeruginosa AK 109. As to conditions: Pseudomonas aeruginosa. The gist of the method: as §1
Assay [5] concerns E. cloacae 963. As to conditions: Enterobacter cloacae, 963, 16 h. In a few lines: as §1
Assay [6] concerns P. vulgaris HX-19. Conditions: Proteus vulgaris, HX19; 10^6 CFU/ml; Mueller Hinton agar, 37° C., 16 hours; read-out: MIC. In a few lines:
as §1

Assay [7] deals with Ps. cepacia 23. The gist of the method: as §1
Assay [8] concerns M. morganii GN5407*. As to conditions: Morganella morganii. The gist of the method: as §1
Assay [9] deals with E. coli NIHJ JC2. As to conditions: Escherichia coli, NIHJJC2; 10^6 CFU/ml; Mueller Hinton agar, 37° C., 16 hours; read-out: MIC. In a few lines:
as §1

In assay [10] the test system is E. cloacae Nek 39*. As to conditions: Enterobacter cloacae. In a few lines: as §1
The test system of assay [11] is Ps. aeruginosa IFO3445. As to conditions: Pseudomonas aeruginosa. The gist of the method: as §1
Assay [12] has as its system E. coli CSH(RE45)*. Conditions: Escherichia coli; 10^6 CFU/ml; β-Lactamase-producing strain; 37° C., 16 hours; read-out: MIC. The gist of the method:
as §1

Assay [13] has as its system Ps. aeruginosa AKR17. As to conditions: Pseudomonas aeruginosa. The gist of the method: as §1
The subject of assay [14] is P. vulgaris No. 33*. As to conditions: Proteus vulgaris. In a few lines: as §1
The test system of assay [15] is A. calcoaceticus No. 4. As to conditions: Acinetobacter calcoaceticus. The gist of the method: as §1
The test system of assay [16] is K. pneumoniae No. 42*. Conditions: Klebsiella pneumoniae. In a few lines: as §1
Assay [17] relates to E. coli CSH2(RK1)*. As to conditions: Escherichia coli, 16 h. In a few lines:
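Minimum inhibitory concentrations, expressed as μg/ml, come from agar dilution plates of Mueller Hinton medium that carry the antibiotic at various concentrations. A loopful of overnight broth culture is applied to each plate, and the plates are read after 16 hours at 37° C.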

Assay [18] has as its system S. marcescens IAM 1184. As to conditions: Serratia marcescens. In a few lines:
as §1

Assay [19] deals with K. oxytoca GN10650*. As to conditions: Klebsiella oxytoca, GN10650, 16 h. In a few lines: as §1
The subject of assay [20] is S. aureus 209P NIHJ-JC1. Conditions: Staphylococcus aureus. In a few lines:
as §1

Where [21] appears, read: PC1602, 10^6 CFU/ml, Mueller Hinton agar, 37° C., 16 hours, read-out: MIC.
[22] abbreviates: Burkholderia cepacia, 23, 10^6 CFU/ml, Mueller Hinton agar, 37° C., 16 hours, read-out: MIC.
The mark [23] stands for this setting: 10^6 CFU/ml, β-Lactamase-producing strain, 37° C., 16 hours, read-out: MIC.
The mark [24] stands for this setting: 10^6 CFU/ml, Mueller Hinton agar, 37° C., 16 hours, read-out: MIC.
Where [25] appears, read: GN5407, 10^6 CFU/ml, β-Lactamase-producing strain, 37° C., 16 hours, read-out: MIC.
Setting [26] is: AKR17, 10^6 CFU/ml, Mueller Hinton agar, 37° C., 16 hours, read-out: MIC.
[27] abbreviates: NO.4, 10^6 CFU/ml, Mueller Hinton agar, 37° C., 16 hours, read-out: MIC.
The mark [28] stands for this setting: IAM1184, 10^6 CFU/ml, Mueller Hinton agar, 37° C., 16 hours, read-out: MIC.

In patent US5084453A, “1-carboxy-1-vinyloxyimino aminothiazole cephalosporin derivatives” (priority 1988, dated 1992) one finds MIC data, which are given here for six compounds.

The structures appear in SMILES notation. Like-named read-outs stand apart in the source and are kept apart here. A value given as a limit tells only on which side of the number the result lay.

By MIC is commonly meant the lowest concentration found to suppress growth. In the case of `C=C(O/N=C(\C(=O)N[C@@H]1C(=O)N2C(C(=O)O)=C(CSc3nnc(-c4ccc(O)c(O)c4)s3)CS[C@H]12)c1csc(N)n1)C(=O)O` [Example 13, disodium 7β-[2-(2-aminothiazol-4-yl)-2-(1-carboxylato-1-vinyloxyimino)acetamido]-3-[5-(3,4-dihydroxyphenyl)-1,3,4-thiadiazol-2-yl]thiomethyl-3-cephem-4-carboxylate (syn-isomer)], the minimum inhibitory concentration (MIC) in assay [1] (16 h) is 0.05 µg/mL; in assay [2], 0.2 µg/mL; in assay [3] (setting [21]), 0.0125 µg/mL; in assay [4] (AK109, 16 h) it was 0.1 µg/mL; in assay [5] it was 0.05 µg/mL; in assay [6], under 0.006 µg/mL. Moreover, the MIC is under 0.006 µg/mL in [7] (setting [22]); 0.1 µg/mL in assay [8] (GN5407, 16 h); 0.2 µg/mL in assay [9]; 0.05 µg/mL in assay [10] (16 h); 0.78 µg/mL in assay [11] (IFO3445, 16 h); under 0.006 µg/mL in [12]. For the same compound, the minimal inhibitory concentration (MIC) in assay [13] (AKR17, 16 h) is 1.56 µg/mL; in [14] (16 h) it was 0.025 µg/mL; in [15] (NO.4, 16 h) it was 0.1 µg/mL; in assay [16] (setting [23]) it was 0.0125 µg/mL; in [17], under 0.006 µg/mL; in assay [18] (IAM1184, 16 h), 0.025 µg/mL. For the same compound, the figures for the minimum inhibitory concentration (MIC) in assay [19] and in assay [20] (setting [24]) were 0.025 µg/mL and 3.12 µg/mL, respectively.
For `C=C(O/N=C(\C(=O)N[C@@H]1C(=O)N2C(C(=O)O)=C(CSc3ncc(-c4ccc(O)c(O)c4)o3)CS[C@H]12)c1csc(N)n1)C(=O)O` [Example 14, disodium 7β-[2-(2-aminothiazol-4-yl)-2-(1-carboxylato-1-vinyloxyimino)acetamido]-3-[5-(3,4-dihydroxyphenyl)oxazol-2-yl]thiomethyl-3-cephem-4-carboxylate (syn-isomer)], the MIC in assay [1] (16 h) is 0.39 µg/mL; in assay [2], 1.56 µg/mL; in [3] (setting [21]), under 0.006 µg/mL; in [4] (AK109, 16 h), 0.78 µg/mL; in assay [5], 0.39 µg/mL; in [6], under 0.006 µg/mL. In addition, the minimal inhibitory concentration (MIC) in [7] (Burkholderia cepacia, 23, 16 h) turned out to be 0.0125 µg/mL; in assay [8] (setting [25]), 0.05 µg/mL; in [9], 0.78 µg/mL; in assay [10] (16 h), 0.1 µg/mL; in [11] (IFO3445, 16 h) it was 0.78 µg/mL; in [12], 0.025 µg/mL. Also, the minimum inhibitory concentration (MIC) in assay [13] (setting [26]) was 3.12 µg/mL; in assay [14] (16 h) it was 0.025 µg/mL; in [15] (setting [27]), 0.2 µg/mL; in [16] (setting [23]), 0.05 µg/mL; in [17], 0.0125 µg/mL; in [18] (setting [28]), 0.05 µg/mL. Further, the MIC in assay [19] stood at 0.1 µg/mL; in assay [20] (16 h), 6.25 µg/mL.
As to `C=C(O/N=C(\C(=O)N[C@@H]1C(=O)N2C(C(=O)O)=C(CSc3nc(-c4ccc(OC(C)=O)c(OC(C)=O)c4)c(CC(=O)O)s3)CS[C@H]12)c1csc(N)n1)C(=O)O` [Example 16, trisodium 3-[4-(3,4-diacetoxyphenyl)-5-carboxylatomethylthiazol-2-yl]thiomethyl-7β-[2-(2-aminothiazol-4-yl)-2-(1-carboxylato-1-vinyloxyimino)acetamido]-3-cephem-4-carboxylate (syn-isomer)], the MIC is 0.78 µg/mL in [1] (16 h); 0.78 µg/mL in assay [2]; under 0.006 µg/mL in assay [3] (setting [21]); 0.78 µg/mL in assay [4] (AK109, 16 h); 0.39 µg/mL in assay [5]; under 0.006 µg/mL in assay [6]. Besides, the MIC in [7] (setting [22]) is under 0.006 µg/mL; in [8] (GN5407, 16 h) it was 0.05 µg/mL; in [9], 0.78 µg/mL; in [10] (16 h), 0.2 µg/mL; in assay [11] (IFO3445, 16 h), 0.78 µg/mL; in [12] it was 1.56 µg/mL. Moreover, the MIC is 1.56 µg/mL in assay [13] (AKR17, 16 h); 0.025 µg/mL in assay [14] (16 h); 0.2 µg/mL in assay [15] (NO.4, 16 h); 0.1 µg/mL in assay [16] (16 h); 0.05 µg/mL in assay [17]; 0.05 µg/mL in assay [18] (IAM1184, 16 h). The minimum inhibitory concentration (MIC) worked out at 0.1 µg/mL in [19] and 12.5 µg/mL in [20] (setting [24]).
In the case of `C=C(O/N=C(\C(=O)N[C@@H]1C(=O)N2C(C(=O)O)=C(COC(C)=O)CS[C@H]12)c1csc(N)n1)C(=O)O` [Example 17, disodium 7β-[2-(2-aminothiazol-4-yl)-2-(1-carboxylato-1-vinyloxyimino)acetamido]cephalosporanate (syn-isomer)], the minimal inhibitory concentration (MIC) was 3.12 µg/mL in [1] (setting [23]); 1.56 µg/mL in [2]; 0.0125 µg/mL in [3] (setting [21]); 6.25 µg/mL in assay [4] (AK109, 16 h); 0.1 µg/mL in [5]; under 0.006 µg/mL in assay [6]. The MIC in assay [7] (Burkholderia cepacia, 23, 16 h) turned out to be 1.56 µg/mL; in assay [8] (GN5407, 16 h), 0.025 µg/mL; in [9], 0.1 µg/mL; in assay [10] (setting [23]), 3.12 µg/mL; in assay [11] (IFO3445, 16 h), 6.25 µg/mL; in assay [12], 0.1 µg/mL. For the same compound, the minimum inhibitory concentration (MIC) in [13] (setting [26]) was over 100 µg/mL; in assay [14] (16 h), 0.1 µg/mL; in [15] (setting [27]) it was 25 µg/mL; in assay [16] (16 h) it was 0.2 µg/mL; in assay [17], 0.025 µg/mL; in [18] (setting [28]), 0.0125 µg/mL. Besides, the MIC in [19] was found to be 0.05 µg/mL; in assay [20] (setting [24]), 12.5 µg/mL.
Turning to `C=C(O/N=C(\C(=O)N[C@@H]1C(=O)N2C(C(=O)O)=C(CSc3nnc(C)s3)CS[C@H]12)c1csc(N)n1)C(=O)O` [Example 18, disodium 7β-[2-(2-aminothiazol-4-yl)-2-11-carboxylato-1-vinyloxyimino)acetamido]-3-(5-methyl-1,3,4-thiadiazol-2-yl)thiomethyl-3-cephem-4-carboxylate (syn-isomer)], the MIC in assay [1] (setting [23]) is 3.12 µg/mL; in [2], 0.39 µg/mL; in [3] (PC1602, 16 h), 0.025 µg/mL; in assay [4] (AK109, 10^6 CFU/ml, Mueller Hinton agar, 37° C., 16 hours, read-out: MIC), 12.5 µg/mL; in assay [5], 0.2 µg/mL; in assay [6] it was under 0.006 µg/mL. The MIC in [7] (setting [22]) was found to be 3.12 µg/mL; in assay [8] (setting [25]), 0.0125 µg/mL; in assay [9], 0.2 µg/mL; in assay [10] (16 h), 0.78 µg/mL; in [11] (IFO3445, 10^6 CFU/ml, Mueller Hinton agar, 37° C., 16 hours, read-out: MIC), 12.5 µg/mL; in [12], 0.1 µg/mL. Moreover, the minimal inhibitory concentration (MIC) in assay [13] (setting [26]) was over 100 µg/mL; in assay [14] (setting [23]) it was under 0.006 µg/mL; in assay [15] (setting [27]), 100 µg/mL; in assay [16] (16 h) it was 0.39 µg/mL; in assay [17], 0.025 µg/mL; in [18] (IAM1184, 16 h), 0.025 µg/mL. Also, the minimum inhibitory concentration (MIC) in [19] stood at 0.2 µg/mL; in [20] (setting [24]) it was 3.12 µg/mL.
Turning to `C=C(O/N=C(\C(=O)N[C@@H]1C(=O)N2C(C(=O)O)=C(CSc3nnnn3C)CS[C@H]12)c1csc(N)n1)C(=O)O` [Example 19, disodium 7β-[2-(2-aminothiazol-4-yl)-2-(1-carboxylato-1-vinyloxyimino)acetamido]-3-(1-methyl-1H-tetrazol-5-yl)thiomethyl-3-cephem-4-carboxylate (syn-isomer)], the MIC was 1.56 µg/mL in assay [1] (16 h); 0.39 µg/mL in assay [2]; 0.0125 µg/mL in [3] (setting [21]); 6.25 µg/mL in assay [4] (AK109, 16 h); 0.1 µg/mL in assay [5]; under 0.006 µg/mL in assay [6]. The minimal inhibitory concentration (MIC) in assay [7] (setting [22]) was 3.12 µg/mL; in [8] (GN5407, 16 h) it was 0.025 µg/mL; in assay [9], 0.05 µg/mL; in assay [10] (16 h) it was 0.78 µg/mL; in assay [11] (IFO3445, 16 h), 6.25 µg/mL; in assay [12] it was 0.1 µg/mL. The minimal inhibitory concentration (MIC) is over 100 µg/mL in assay [13] (setting [26]); under 0.006 µg/mL in assay [14] (setting [23]); 100 µg/mL in [15] (setting [27]); 0.2 µg/mL in assay [16] (16 h); 0.025 µg/mL in assay [17]; under 0.006 µg/mL in assay [18] (setting [28]). In addition, the minimum inhibitory concentration (MIC) in assay [19] was 0.05 µg/mL; in assay [20] (16 h) it was 6.25 µg/mL.
